Results: US4416884A, “Piperazinylbenzoheterocyclic compounds” (Otsuka Pharmaceutical Co., Ltd., priority 1978, dated 1983)
In brackets after ≈: the same amount, converted by molar mass. Like-named read-outs stand apart in the source and are kept apart here.

Tests used:
[1] = test system: Test Organism 2 (Escherichia Coli NIHJ JC-2 (IFO 12734)); assay: influence of the addition of horse serum on the MIC; type: cell-based
[2] = test system: Pseudomonas fluorescens IFO 12568; assay: antimicrobial activity on bacteria which cause infectious diseases in fish; type: cell-based
Protocol: (§1) The antimicrobial activity of the following test compounds on various test organisms listed below was determined by the serial dilution method on agar plate (Heart Infusion agar produced by Difco Co.) (see CHEMOTHERAPY 22, pp. 1126-1128 (1974)), and the minimum inhibitory concentrations (mcg/ml) obtained are shown in Table 1 below.
(§2) A sample of each test organism was prepared so that the population of the organism was 1×10^8 cells/ml (O.D. 660 mμ=0.07 to 0.16) and 1×10^6 cells/ml (which was obtained by diluting the above 1×10^8 cells/ml preparation).
(§3) In the same manner as above, the antimicrobial activity of the following compounds on various test organisms which cause infectious diseases in fish was determined.

[3] = test system: Pseudomonas fluorescens IFO 12180; assay: as above; type: cell-based
Protocol: as §1, §2, §3

[4] = test system: Vibrio anguillarum IFO 13266; assay: as above; type: cell-based
Protocol: as §1, §2, §3

[5] = test system: Aeromonas hydrophila IFO 12981; assay: as above; type: cell-based
Protocol: as §1, §2, §3

[6] = test system: Vibrio anguillarum IFO 12710; assay: as above; type: cell-based
Protocol: as §1, §2, §3

[7] = test system: Aeromonas hydrophila IFO 12658; assay: as above; type: cell-based
Protocol: as §1, §2, §3

[8] = test system: Aeromonas salmonicida IFO 12718; assay: as above; type: cell-based
Protocol: as §1, §2, §3

[9] = test system: Aeromonas salmonicida IFO 12659; assay: as above; type: cell-based
Protocol: as §1, §2, §3

[10] = test system: Test Organism 1 (Escherichia Coli NIHJ); assay: influence of the addition of horse serum on the MIC; type: cell-based
[11] = test system: Test Organism 17 (Pseudomonas putida IFO 13696); assay: as above; type: cell-based
[12] = test system: Yersinia enterocolitica 0-5; assay: antimicrobial activity, serial dilution method on agar plate; type: cell-based
[13] = test system: Serattia marcescens IFO 12648; assay: as above; type: cell-based
In short: (§4)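 Reported figure is the lowest compound level (mcg/ml) inhibiting growth on Heart Infusion agar in a serial plate dilution. Suspensions of 1×10^8 and 1×10^6 cells/ml served as inocula.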

[14] = test system: Yersinia enterocolitica 0-3; assay: as above; type: cell-based
In short: as §4

[15] = test system: Klebsiella pneumoniae ST-101; assay: as above; type: cell-based
In short: as §4

[16] = test system: Staphylococcus aureus FDA 209 P; assay: as above; type: cell-based
In short: as §4

[17] = test system: Corinebacterium diphteriae; assay: as above; type: cell-based
In short: as §4

in vitro = conditions: human
Protocol: A 1/15 mol/l phosphate buffer was added to powder of Moni-Trol 1 (dehydrated preparation of human serum, a product of Midori Juji Co., Ltd.) to prepare a composition having the same serum protein concentration as natural human serum and this preparation was labeled "100% human serum", an aliquot of the "100% human serum" preparation was mixed with the same volume of the above buffer to prepare "50% human serum" and another aliquot was mixed with 4 times as much as its volume of the buffer to prepare "20% human serum".

[18] = read-out: Minimum Inhibitory Concentration, horse serum 0%, inoculum 10^6
[19] = read-out: Minimum Inhibitory Concentration, horse serum 0%, inoculum 10^8
[20] = read-out: Minimum Inhibitory Concentration, horse serum 10%, inoculum 10^6
[21] = read-out: Minimum Inhibitory Concentration, horse serum 10%, inoculum 10^8
[22] = read-out: Minimum Inhibitory Concentration, horse serum 20%, inoculum 10^6
[23] = read-out: Minimum Inhibitory Concentration, horse serum 20%, inoculum 10^8
[24] = read-out: Minimum Inhibitory Concentration, horse serum 40%, inoculum 10^6
[25] = read-out: Minimum Inhibitory Concentration, horse serum 40%, inoculum 10^8
[26] = IFO12981, inoculum 10^6, read-out: Minimum Inhibitory Concentration
[27] = IFO12981, inoculum 10^8, read-out: Minimum Inhibitory Concentration
[28] = IFO12658, inoculum 10^6, read-out: Minimum Inhibitory Concentration
[29] = IFO12658, inoculum 10^8, read-out: Minimum Inhibitory Concentration
[30] = IFO12718, inoculum 10^6, read-out: Minimum Inhibitory Concentration
[31] = IFO12718, inoculum 10^8, read-out: Minimum Inhibitory Concentration
[32] = IFO12659, inoculum 10^6, read-out: Minimum Inhibitory Concentration
[33] = IFO12659, inoculum 10^8, read-out: Minimum Inhibitory Concentration
[34] = Yersinia enterocolitica, 05, read-out: Minimum Inhibitory Concentration, inoculum 1 × 10^6 cells/ml
[35] = Yersinia enterocolitica, 05, read-out: Minimum Inhibitory Concentration, inoculum 1 × 10^8 cells/ml
[36] = read-out: Minimum Inhibitory Concentration, inoculum 1 × 10^6 cells/ml
[37] = read-out: Minimum Inhibitory Concentration, inoculum 1 × 10^8 cells/ml
[38] = Yersinia enterocolitica, 03, read-out: Minimum Inhibitory Concentration, inoculum 1 × 10^6 cells/ml
[39] = Yersinia enterocolitica, 03, read-out: Minimum Inhibitory Concentration, inoculum 1 × 10^8 cells/ml
[40] = ST101, read-out: Minimum Inhibitory Concentration, inoculum 1 × 10^6 cells/ml
[41] = ST101, read-out: Minimum Inhibitory Concentration, inoculum 1 × 10^8 cells/ml
[42] = FDA209, read-out: Minimum Inhibitory Concentration, inoculum 1 × 10^6 cells/ml
[43] = FDA209, read-out: Minimum Inhibitory Concentration, inoculum 1 × 10^8 cells/ml

CC1Cc2c(N3CCNCC3)ccc3c(=O)c(C(=O)O)cn1c23 (stereo not drawn) [C]
MIC [1, 18]: 1.6 µg/mL (≈ 5.11 µM)
MIC [1, 19]: 1.6 µg/mL (≈ 5.11 µM)
MIC [1, 20]: 1.6 µg/mL (≈ 5.11 µM)
MIC [1, 21]: 1.6 µg/mL (≈ 5.11 µM)
MIC [1, 22]: 1.6 µg/mL (≈ 5.11 µM)
MIC [1, 23]: 0.8 µg/mL (≈ 2.55 µM)
MIC [1, 24]: 0.4 µg/mL (≈ 1.28 µM)
MIC [1, 25]: 0.4 µg/mL (≈ 1.28 µM)
MIC ([2]; IFO12568, read-out: Minimum Inhibitory Concentration, inoculum 10^6): 25 µg/mL (≈ 79.8 µM)
MIC ([2]; IFO12568, read-out: Minimum Inhibitory Concentration, inoculum 10^8): 50 µg/mL (≈ 160 µM)
MIC ([3]; IFO12180, read-out: Minimum Inhibitory Concentration): 3.1 µg/mL (≈ 9.89 µM)
MIC ([4]; IFO13266, read-out: Minimum Inhibitory Concentration, inoculum 10^6): 0.2 µg/mL (≈ 0.638 µM)
MIC ([4]; IFO13266, read-out: Minimum Inhibitory Concentration, inoculum 10^8): 0.4 µg/mL (≈ 1.28 µM)
MIC [5, 26]: 0.2 µg/mL (≈ 0.638 µM)
MIC [5, 27]: 0.4 µg/mL (≈ 1.28 µM)
MIC ([6]; IFO12710, read-out: Minimum Inhibitory Concentration, inoculum 10^6): 1.6 µg/mL (≈ 5.11 µM)
MIC ([6]; IFO12710, read-out: Minimum Inhibitory Concentration, inoculum 10^8): 3.1 µg/mL (≈ 9.89 µM)
MIC [7, 28]: 0.2 µg/mL (≈ 0.638 µM)
MIC [7, 29]: 0.4 µg/mL (≈ 1.28 µM)
MIC [8, 30]: 0.4 µg/mL (≈ 1.28 µM)
MIC [8, 31]: 0.4 µg/mL (≈ 1.28 µM)
MIC [9, 32]: 0.2 µg/mL (≈ 0.638 µM)
MIC [9, 33]: 0.4 µg/mL (≈ 1.28 µM)
MIC [10, 18]: 12.5 µg/mL (≈ 39.9 µM)
MIC [10, 19]: 12.5 µg/mL (≈ 39.9 µM)
MIC [10, 20]: 6.3 µg/mL (≈ 20.1 µM)
MIC [10, 21]: 12.5 µg/mL (≈ 39.9 µM)
MIC [10, 22]: 6.3 µg/mL (≈ 20.1 µM)
MIC [10, 23]: 12.5 µg/mL (≈ 39.9 µM)
MIC [10, 24]: 6.3 µg/mL (≈ 20.1 µM)
MIC [10, 25]: 12.5 µg/mL (≈ 39.9 µM)
MIC ([11]; IFO13696, read-out: Minimum Inhibitory Concentration, horse serum 0%, inoculum 10^6): 0.4 µg/mL (≈ 1.28 µM)
MIC ([11]; IFO13696, read-out: Minimum Inhibitory Concentration, horse serum 0%, inoculum 10^8): 0.8 µg/mL (≈ 2.55 µM)
MIC ([11]; IFO13696, read-out: Minimum Inhibitory Concentration, horse serum 10%, inoculum 10^6): 0.4 µg/mL (≈ 1.28 µM)
MIC ([11]; IFO13696, read-out: Minimum Inhibitory Concentration, horse serum 10%, inoculum 10^8): 0.8 µg/mL (≈ 2.55 µM)
MIC ([11]; IFO13696, read-out: Minimum Inhibitory Concentration, horse serum 20%, inoculum 10^6): 0.4 µg/mL (≈ 1.28 µM)
MIC ([11]; IFO13696, read-out: Minimum Inhibitory Concentration, horse serum 20%, inoculum 10^8): 0.8 µg/mL (≈ 2.55 µM)
MIC ([11]; IFO13696, read-out: Minimum Inhibitory Concentration, horse serum 40%, inoculum 10^6): 0.4 µg/mL (≈ 1.28 µM)
MIC ([11]; IFO13696, read-out: Minimum Inhibitory Concentration, horse serum 40%, inoculum 10^8): 0.4 µg/mL (≈ 1.28 µM)
MIC [12, 34]: 1.6 µg/mL (≈ 5.11 µM)
MIC [12, 35]: 1.6 µg/mL (≈ 5.11 µM)
MIC [13, 36]: 1.6 µg/mL (≈ 5.11 µM)
MIC [13, 37]: 3.1 µg/mL (≈ 9.89 µM)
MIC [14, 38]: 1.6 µg/mL (≈ 5.11 µM)
MIC [14, 39]: 1.6 µg/mL (≈ 5.11 µM)
MIC [15, 40]: 0.2 µg/mL (≈ 0.638 µM)
MIC [15, 41]: 0.8 µg/mL (≈ 2.55 µM)
MIC [16, 42]: 25 µg/mL (≈ 79.8 µM)
MIC [16, 43]: 25 µg/mL (≈ 79.8 µM)
MIC [17, 36]: 6.3 µg/mL (≈ 20.1 µM)
MIC [17, 37]: 25 µg/mL (≈ 79.8 µM)

CCn1cc(C(=O)O)c(=O)c2ccc(C)nc21 [E]
fraction unbound at 2 h (in vitro; 10% human serum): 0.528
fraction unbound at 2 h (in vitro; 10% human serum, Inactivation Ratio): 0.587
fraction unbound at 2 h (in vitro; 20% human serum): 0.608
fraction unbound at 2 h (in vitro; 20% human serum, Inactivation Ratio): 0.565
fraction unbound at 2 h (in vitro; 50% human serum): 0.376
fraction unbound at 2 h (in vitro; 50% human serum, Inactivation Ratio): 0.387
fraction unbound at 2 h (in vitro; 100% human serum): 0.24
fraction unbound at 2 h (in vitro; 100% human serum, Inactivation Ratio): 0.387
MIC ([2]; IFO12568, inoculum 10^6, read-out: Minimum Inhibitory Concentration): 50 µg/mL (≈ 215 µM)
MIC ([2]; IFO12568, inoculum 10^8, read-out: Minimum Inhibitory Concentration): > 50 µg/mL
MIC ([3]; IFO12180, inoculum 10^6, read-out: Minimum Inhibitory Concentration): 50 µg/mL (≈ 215 µM)
MIC ([3]; IFO12180, inoculum 10^8, read-out: Minimum Inhibitory Concentration): > 50 µg/mL
MIC ([4]; IFO13266, inoculum 10^6, read-out: Minimum Inhibitory Concentration): 0.8 µg/mL (≈ 3.44 µM)
MIC ([4]; IFO13266, inoculum 10^8, read-out: Minimum Inhibitory Concentration): 1.6 µg/mL (≈ 6.89 µM)
MIC [5, 26]: 0.2 µg/mL (≈ 0.861 µM)
MIC [5, 27]: 0.4 µg/mL (≈ 1.72 µM)
MIC ([6]; IFO12710, inoculum 10^6, read-out: Minimum Inhibitory Concentration): 0.8 µg/mL (≈ 3.44 µM)
MIC ([6]; IFO12710, inoculum 10^8, read-out: Minimum Inhibitory Concentration): 1.6 µg/mL (≈ 6.89 µM)
MIC [7, 28]: 0.8 µg/mL (≈ 3.44 µM)
MIC [7, 29]: 0.8 µg/mL (≈ 3.44 µM)
MIC [8, 30]: 0.8 µg/mL (≈ 3.44 µM)
MIC [8, 31]: 0.8 µg/mL (≈ 3.44 µM)
MIC [9, 32]: 0.8 µg/mL (≈ 3.44 µM)
MIC [9, 33]: 0.8 µg/mL (≈ 3.44 µM)
MIC [12, 34]: 1.6 µg/mL (≈ 6.89 µM)
MIC [12, 35]: 3.1 µg/mL (≈ 13.3 µM)
MIC [13, 36]: 3.1 µg/mL (≈ 13.3 µM)
MIC [13, 37]: 3.1 µg/mL (≈ 13.3 µM)
MIC [14, 38]: 1.6 µg/mL (≈ 6.89 µM)
MIC [14, 39]: 12.5 µg/mL (≈ 53.8 µM)
MIC [15, 40]: 1.6 µg/mL (≈ 6.89 µM)
MIC [15, 41]: 1.6 µg/mL (≈ 6.89 µM)
MIC [16, 42]: 50 µg/mL (≈ 215 µM)
MIC [16, 43]: 50 µg/mL (≈ 215 µM)
MIC [17, 36]: > 100 µg/mL
MIC [17, 37]: > 100 µg/mL
